# Experimental data as given in patent US5227395A, “Anti-platelet aggregating agent” (Nisshin Flour Milling Co., Ltd., priority 1991, dated 1993).
# Tested on: platelet aggregation
# Experiment: In vitro anti-platelet test: inhibition of arachidonic acid-induced platelet aggregation in platelet-rich plasma (Born's turbidimetric method)
# Format: cell-based, male Japanese white rabbits
# Conditions: Oryctolagus cuniculus, 5 min, rabbit PRP, 37° C., read-out: Percentage inhibition of platelet aggregation; for inhibition at 50 µg/mL: 50 μg/ml; for inhibition at 100 µg/mL: 100 μg/ml; for inhibition at 10 µg/mL: 10 μg/ml; for inhibition at 25 µg/mL: 25 μg/ml
# Procedure: The anti-platelet aggregating activity of the compounds of the present invention was determined by Born's turbidimetric method (G.V.R. Born, Nature, No. 4832, Jun. 9, 1962, 927-929) using an aggregometer (NKK Hema Tracer 1, PAT-4M, NKK Inc. Japan).
# PRP was prepared from male Japanese white rabbits weighing 2.3-4.1 kg. Blood was drawn into syringes containing 3.8% sodium citrate (1/10 volume) and centrifuged at 1000 r.p.m. for 10 min. at room temperature. Platelet poor plasma (PPP) was obtained from the supernatant fraction of the residual blood by centrifugation at 3000 r.p.m. for 10 min. The aggregation (%) was calculated against the turbidity of PPP, which was designated as 100%. 1.2. In vitro anti-platelet test
# A 200 μl volume of PRP was placed in the cuvette of the aggregometer and incubated at 37° C. To the cuvette was added 25 μl of 10% methanol solution in physiological saline as a solvent or 25 μl of test drug solution dissolved in the solvent in a predetermined concentration (μg/ml) indicated in Table 2, which was stirred and incubated. 5 min. after, platelet aggregation was induced by the addition of 25 μl of 10^-2 M arachidonic acid. Changes in the percentage of aggregation was recorded on a multirecorder (T626-DS, NKK Inc., Japan). 1-(4' -Methoxybenzoyl)-2-pyrrolidinone (aniracetam) was used as a control compound.
# 2. Result The percentage inhibition (I) of platelet aggregation by a test drug was calculated from the following equation: […]
# in which A is the percentage maximum aggregation for addition of the drug and B is the percentage maximum aggregation for no addition of the drug.
SMILES,inhibition at 50 µg/mL [%],inhibition at 100 µg/mL [%],inhibition at 10 µg/mL [%],inhibition at 25 µg/mL [%]
"COc1ccc(C(=O)N2CCCC2=O)cc1 [Aniracetam, 1-(4' -Methoxybenzoyl)-2-pyrrolidinone, reference compound]",0.4,4.1,,
"COc1ccccc1OC(=O)N1CCCC1=O [Compound No. 2, 1-(2'-Methoxyphenoxycarbonyl)-2-pyrrolidinone]",81.6,96.2,40.9,69.8
"COc1cccc(OC(=O)N2CCCC2=O)c1 [Compound No. 3, 1-(3'-Methoxyphenoxycarbonyl)-2-pyrrolidinone]",8.5,28.6,,
"COc1ccc(OC(=O)N2CCCC2=O)cc1 [Compound No. 4, 1-(4'-Methoxyphenoxycarbonyl)-2-pyrrolidinone]",95.5,98.2,51.1,72.5
"Cc1ccccc1OC(=O)N1CCCC1=O [Compound No. 5, 1-(2'-Methylphenoxycarbonyl)-2-pyrrolidinone]",50.6,92.3,5,35.8
"Cc1cccc(OC(=O)N2CCCC2=O)c1 [Compound No. 6, 1-(3'-Methylphenoxycarbonyl)-2-pyrrolidinone]",4.7,39.7,,
"Cc1ccc(OC(=O)N2CCCC2=O)cc1 [Compound No. 7, 1-(4'-Methylphenoxycarbonyl)-2-pyrrolidinone]",70.6,97.7,5.8,31
"COc1cccc(OC)c1OC(=O)N1CCCC1=O [Compound No. 18, 1-(2',6'-Dimethoxyphenoxycarbonyl)-2-pyrrolidinone]",90.9,96.4,26,64.8
